Seven compounds from ChEMBL document CHEMBL6177934, “Chemical synthetic approaches to mimic the TRAIL: promising cancer therapeutics” (RSC Med Chem, 2024) can be followed below.

Starred links: 1 amine or outer side, 2 acyl side, 3 side chain; linkers in the order of their positions; H or OH if unused. Positions of bridges follow the written chain, without caps; N, C: chain ends. Residues, ends and D or L forms follow the SMILES beside them. Chains are numbered I, II in the order given. *: point of attachment. X1 = NC12CC3(C(=O)NCCCCCC(=O)[*:1])CC(C(=O)NCCCCCC(=O)[*:2])(C1)CC(C(=O)NCCCCCC(=O)[*:3])(C2)C3; X2 = O=C(CCC(=O)[*:1])NCCCC12CC3CC(CCCNC(=O)CCC(=O)[*:2])(C1)CC(CCCNC(=O)CCC(=O)[*:3])(C3)C2; Diglycolyl = O=C(COCC(=O)[*:2])[*:1]; X3 = CC(C)C[C@@H](C)N*

Assay [1] has as its target Tumor necrosis factor receptor superfamily member 10B (Homo sapiens, UniProt O14763). In words: Binding affinity to human recombinant DR5 assessed as dissociation constant by SPR analysis. A general note: Surface plasmon resonance follows binding to a sensor surface in real time, without labels.
A further assay concerns BJAB. In words: Antiproliferative activity against human BJAB cells assessed as reduction in cell viability incubated for 16 hrs by MTS assay. Format: functional, cell-based.

Sequence of Tumor necrosis factor receptor superfamily member 10B (O14763 whole entry): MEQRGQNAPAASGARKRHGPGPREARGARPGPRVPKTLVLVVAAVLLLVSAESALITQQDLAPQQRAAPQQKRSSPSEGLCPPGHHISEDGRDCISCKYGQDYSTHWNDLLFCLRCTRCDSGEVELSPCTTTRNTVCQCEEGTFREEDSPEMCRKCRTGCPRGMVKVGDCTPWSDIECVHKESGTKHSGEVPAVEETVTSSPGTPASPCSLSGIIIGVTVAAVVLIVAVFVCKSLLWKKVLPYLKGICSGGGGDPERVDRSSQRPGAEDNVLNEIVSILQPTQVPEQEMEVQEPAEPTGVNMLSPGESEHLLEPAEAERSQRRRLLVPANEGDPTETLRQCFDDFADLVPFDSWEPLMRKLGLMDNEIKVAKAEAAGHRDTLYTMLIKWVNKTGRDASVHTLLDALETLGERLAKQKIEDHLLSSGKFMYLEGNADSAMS

The term Kd denotes the free concentration of one partner at which half of the binding sites on the other are occupied at equilibrium, for simple one-to-one binding. On to `CC[C@H](C)[C@@H]1NC(=O)[C@H](CCCNC(=N)N)NC(=O)[C@H](CC(N)=O)NC(=O)[C@H](CC(=O)O)NC(=O)[C@H](CC(C)C)NC(=O)[C@@H](NC(=O)[C@H](CC(=O)O)NC(=O)[C@H](Cc2c[nH]c3ccccc23)NC(C)=O)CSSC[C@@H](C(=O)N[C@H](C(=O)N[C@@H](CCCCN)C(=O)N[C@@H](CC(C)C)C(N)=O)C(C)C)NC(=O)[C@H](CCC(N)=O)NC(=O)[C@H](CCCNC(=N)N)NC(=O)[C@H](CCCCNC(=O)COCC(=O)NCCCC[C@@H]2NC(=O)CNC(=O)[C@H]([C@@H](C)CC)NC(=O)[C@H](CCCNC(=N)N)NC(=O)[C@H](CC(N)=O)NC(=O)[C@H](CC(=O)O)NC(=O)[C@H](CC(C)C)NC(=O)[C@@H](NC(=O)[C@H](CC(=O)O)NC(=O)[C@H](Cc3c[nH]c4ccccc34)NC(C)=O)CSSC[C@@H](C(=O)N[C@H](C(=O)N[C@@H](CCCCN)C(=O)N[C@@H](CC(C)C)C(N)=O)C(C)C)NC(=O)[C@H](CCC(N)=O)NC(=O)[C@H](CCCNC(=N)N)NC2=O)NC(=O)CNC1=O` (I: Ac-WDCLDNRIGKRQCVKL-NH2 / II: Ac-WDCLDNRIGKRQCVKL-NH2; disulfide I:3-I:13, II:3-II:13; linker I:10-II:10 via Diglycolyl), for which the Kd in assay [1] was found to be 0.114 nM.

In the case of “I: Ac-WDCLDNKIGRRQCVKL-NH2 / II: Ac-WDCLDNKIGRRQCVKL-NH2 / III: Ac-WDCLDNKIGRRQCVKL-NH2 (disulfide I:3-I:13, II:3-II:13, III:3-III:13; linker I:7-II:7-III:7 via X2)”, the Kd in assay [1] was 0.05 nM.

On to `CC[C@H](C)[C@@H]1NC(=O)[C@H](CCCNC(=N)N)NC(=O)[C@H](CC(N)=O)NC(=O)[C@H](CC(=O)O)NC(=O)[C@H](CC(C)C)NC(=O)[C@@H](NC(=O)[C@H](CC(=O)O)NC(=O)[C@H](Cc2c[nH]c3ccccc23)NC(C)=O)CSSC[C@@H](C(=O)N[C@H](C(=O)N[C@@H](CCCCNC(=O)COCC(=O)NCCCC[C@H](NC(=O)[C@@H](NC(=O)[C@@H]2CSSC[C@H](NC(=O)[C@H](CC(=O)O)NC(=O)[C@H](Cc3c[nH]c4ccccc34)NC(C)=O)C(=O)N[C@@H](CC(C)C)C(=O)N[C@@H](CC(=O)O)C(=O)N[C@@H](CC(N)=O)C(=O)N[C@@H](CCCNC(=N)N)C(=O)N[C@@H]([C@@H](C)CC)C(=O)NCC(=O)N[C@@H](CCCNC(=N)N)C(=O)N[C@@H](CCCNC(=N)N)C(=O)N[C@@H](CCC(N)=O)C(=O)N2)C(C)C)C(=O)N[C@@H](CC(C)C)C(N)=O)C(=O)N[C@@H](CC(C)C)C(N)=O)C(C)C)NC(=O)[C@H](CCC(N)=O)NC(=O)[C@H](CCCNC(=N)N)NC(=O)[C@H](CCCNC(=N)N)NC(=O)CNC1=O` (I: Ac-WDCLDNRIGRRQCVKL-NH2 / II: Ac-WDCLDNRIGRRQCVKL-NH2; disulfide I:3-I:13, II:3-II:13; linker I:15-II:15 via Diglycolyl), for which the Kd in assay [1] amounted to 1.24 nM.

The IC50 is the concentration that gives 50% inhibition. Consider “I: Ac-WDCLDNRIGRRQCVKL-NH2 / II: Ac-WDCLDNRIGRRQCVKL-NH2 / III: Ac-WDCLDNRIGRRQCVKL-NH2 (disulfide I:3-I:13, II:3-II:13, III:3-III:13; linker I:15-II:15-III:15 via X1)”, for which, in assay [1], the Kd came out at 9.1 nM. Moreover, the half-inhibitory concentration (IC50) with BJAB worked out at 31.2 nM.

With “I: Ac-WDCLDNRIGKRQCVKL-NH2 / II: Ac-WDCLDNRIGKRQCVKL-NH2 / III: Ac-WDCLDNRIGKRQCVK-X3 (disulfide I:3-I:13, II:3-II:13, III:3-III:13; linker I:10-II:10-III:10 via X2)”, the Kd in assay [1] was 0.539 nM.

Take “I: Ac-WDCLDNRIGRRQCVKL-NH2 / II: Ac-WDCLDNRIGRRQCVKL-NH2 / III: Ac-WDCLDNRIGRRQCVKL-NH2 (disulfide I:3-I:13, II:3-II:13, III:3-III:13; linker I:15-II:15-III:15 via X2)”: the Kd in assay [1] was 0.88 nM.

Regarding `CC[C@H](C)[C@@H]1NC(=O)[C@H](CCCCNC(=O)COCC(=O)NCCCC[C@@H]2NC(=O)[C@H](CC(N)=O)NC(=O)[C@H](CC(=O)O)NC(=O)[C@H](CC(C)C)NC(=O)[C@@H](NC(=O)[C@H](CC(=O)O)NC(=O)[C@H](Cc3c[nH]c4ccccc34)NC(C)=O)CSSC[C@@H](C(=O)N[C@H](C(=O)N[C@@H](CCCCN)C(=O)N[C@@H](CC(C)C)C(N)=O)C(C)C)NC(=O)[C@H](CCC(N)=O)NC(=O)[C@H](CCCNC(=N)N)NC(=O)[C@H](CCCNC(=N)N)NC(=O)CNC(=O)[C@H]([C@@H](C)CC)NC2=O)NC(=O)[C@H](CC(N)=O)NC(=O)[C@H](CC(=O)O)NC(=O)[C@H](CC(C)C)NC(=O)[C@@H](NC(=O)[C@H](CC(=O)O)NC(=O)[C@H](Cc2c[nH]c3ccccc23)NC(C)=O)CSSC[C@@H](C(=O)N[C@H](C(=O)N[C@@H](CCCCN)C(=O)N[C@@H](CC(C)C)C(N)=O)C(C)C)NC(=O)[C@H](CCC(N)=O)NC(=O)[C@H](CCCNC(=N)N)NC(=O)[C@H](CCCNC(=N)N)NC(=O)CNC1=O` (I: Ac-WDCLDNKIGRRQCVKL-NH2 / II: Ac-WDCLDNKIGRRQCVKL-NH2; disulfide I:3-I:13, II:3-II:13; linker I:7-II:7 via Diglycolyl), the Kd in assay [1] came out at 2.29 nM.
